Assay results taken from patent US20240016774A1, “IMPLANTABLE DEPOTS FOR LOCALIZED, SUSTAINED, CONTROLLED RELEASE OF THERAPEUTIC AGENTS TO TREAT CANCER AND RELATED CONDITIONS” (Foundry Therapeutics, Inc., priority 2020, published 2024).

Assay: in vitro drug release (elution) in PBS at 37° C.
Type: physicochemical
Conditions: docetaxel powder, milled vs unmilled
Experimental: Using docetaxel as the example drug, and 10:10:80 PEG10K:PLGA5050:Doce as the baseline formulation for comparison, we show below various novel formulations that can increase in vitro drug elution rates as tested in PBS at 37° C. 10:10:80 PEG10K:PLGA5050:Doce was the formulation that was evaluated in our preclinical studies. Average cumulative drug release % values with linear trend line from the first 14 days were plotted, as shown in FIG. 114. • Baseline=PEG:PLGA:Doce 10:10:80 Rod • Fast=PEG:PLGA:Doce 50:10:40 Rod • Faster=PEG:Doce 60:40 Rod • Raw docetaxel powder, milled or unmilled • Fastest=PEG:Doce 1:1 Particles
The mechanism of how each of these novel formulations can achieve increased in vitro drug release rate compared to the baseline 10:10:80 PEG10K:PLGA5050:Doce formulation is explained below. We have developed multiple formulations with tunable drug release rates that takes advantage of either decreasing hydrophobicity (by increasing PEG content) or introducing predominantly molecularly dispersed drug into the polymer matrix.

With `CC(=O)O[C@@]12CO[C@@H]1C[C@H](O)[C@@]1(C)C(=O)[C@H](O)C3=C(C)[C@@H](OC(=O)[C@H](O)[C@@H](NC(=O)OC(C)(C)C)c4ccccc4)C[C@@](O)([C@@H](OC(=O)c4ccccc4)[C@H]21)C3(C)C` [docetaxel] the “dissolution rate after milling” value was “does not significantly increase dissolution rate even after milling”.
